Results reported in PMC9656811, “Structure-Based Discovery and Biological Assays of a Novel PRMT5 Inhibitor for Non-Small Cell Lung Cancer” (Molecules, 2022).

Molecular target: Protein arginine methyltransferase 5 (PRMT5) (Homo sapiens, UniProt O14744)
Test: AlphaLISA methyltransferase assay, […] concentrations, PRMT5 from BPS Bioscience (Cat. No. […])
Format: biochemical

Chain of Protein arginine methyltransferase 5 (PRMT5) (O14744 2-637): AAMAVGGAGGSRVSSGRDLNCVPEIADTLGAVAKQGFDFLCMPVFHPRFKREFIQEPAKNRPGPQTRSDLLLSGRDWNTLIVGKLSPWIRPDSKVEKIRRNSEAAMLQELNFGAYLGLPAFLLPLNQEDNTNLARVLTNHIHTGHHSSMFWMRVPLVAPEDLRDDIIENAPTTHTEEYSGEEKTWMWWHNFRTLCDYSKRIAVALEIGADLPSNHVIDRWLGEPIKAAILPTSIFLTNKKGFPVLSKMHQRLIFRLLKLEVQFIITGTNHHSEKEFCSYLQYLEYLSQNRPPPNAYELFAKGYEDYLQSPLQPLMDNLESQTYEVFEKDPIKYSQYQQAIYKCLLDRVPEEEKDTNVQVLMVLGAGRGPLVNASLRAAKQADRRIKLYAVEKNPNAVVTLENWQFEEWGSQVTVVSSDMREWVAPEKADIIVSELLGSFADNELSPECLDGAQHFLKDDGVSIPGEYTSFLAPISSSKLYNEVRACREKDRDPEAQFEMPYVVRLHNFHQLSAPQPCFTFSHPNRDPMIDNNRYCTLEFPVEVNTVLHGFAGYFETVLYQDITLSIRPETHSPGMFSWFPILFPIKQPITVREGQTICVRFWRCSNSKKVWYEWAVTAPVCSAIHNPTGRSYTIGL
Chain of Protein arginine methyltransferase 5 (PRMT5) (Q9BQA1 whole entry partner): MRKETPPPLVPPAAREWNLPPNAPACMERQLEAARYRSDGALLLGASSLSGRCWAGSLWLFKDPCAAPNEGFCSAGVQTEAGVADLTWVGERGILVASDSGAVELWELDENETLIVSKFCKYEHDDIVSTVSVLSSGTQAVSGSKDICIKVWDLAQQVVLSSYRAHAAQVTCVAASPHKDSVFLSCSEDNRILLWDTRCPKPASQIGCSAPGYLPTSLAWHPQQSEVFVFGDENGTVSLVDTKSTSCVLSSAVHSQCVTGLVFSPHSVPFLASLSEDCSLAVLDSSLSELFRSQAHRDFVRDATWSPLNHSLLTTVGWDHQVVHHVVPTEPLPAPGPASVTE

Compound: O=C1c2ccccc2C(=O)c2c(NCCCN(CCO)CCO)cccc21 [3039-0164]
- IC50: 63 µM
